In PubChem BioAssay AID330 (DTP/NCI, 2004):
“And” between values parts separate entries of the source, which are not always exact repeats. Identical values can stand only once. Toxic doses and inconclusive results are not listed.

System: P388 leukemia ip, CD2F1 mice, survival T/C
Assay: NCI In Vivo Anticancer Drug Screen. Data for tumor model P388 Leukemia (intraperitoneal) in CD2F1 (CDF1) mice
Conditions: endpoint: median survival time, higher = longer survival
Outline: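 Mice carrying the transplanted tumor received test compound or vehicle. Survival was recorded in each group, and the value is the treated-group measurement divided by that of the vehicle-treated control group.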

[1] = dose: 50.0 mg/kg/injection, schedule: Q01DX009 (ip), vehicle: saline
[2] = dose: 100.0 mg/kg/injection, schedule: Q01DX009 (ip), vehicle: saline
[3] = dose: 200.0 mg/kg/injection, schedule: Q01DX009 (ip), vehicle: saline
[4] = dose: 50.0 mg/kg/injection, schedule: Q01DX005 (ip), vehicle: Klucel (hydroxypropylcellulose) (HPC)
[5] = dose: 100.0 mg/kg/injection, schedule: Q01DX005 (ip), vehicle: Klucel (hydroxypropylcellulose) (HPC)
[6] = dose: 200.0 mg/kg/injection, schedule: Q01DX005 (ip), vehicle: Klucel (hydroxypropylcellulose) (HPC)
[7] = dose: 50.0 mg/kg/injection, schedule: Q01DX005 (ip), vehicle: saline with Tween-80
[8] = dose: 100.0 mg/kg/injection, schedule: Q01DX005 (ip), vehicle: saline with Tween-80
[9] = dose: 200.0 mg/kg/injection, schedule: Q01DX005 (ip), vehicle: saline with Tween-80

Compound: O=C(OCCCCBr)c1ccccc1
- T/C (dose: 50.0 mg/kg/injection, schedule: Q01DX009 (ip), vehicle: saline + Tween-80 + alcohol): 102 % of control
- T/C (dose: 100.0 mg/kg/injection, schedule: Q01DX009 (ip), vehicle: saline + Tween-80 + alcohol): 97 % of control
- T/C (dose: 200.0 mg/kg/injection, schedule: Q01DX009 (ip), vehicle: saline + Tween-80 + alcohol): 96 % of control
- T/C (dose: 400.0 mg/kg/injection, schedule: Q01DX009 (ip), vehicle: saline + Tween-80 + alcohol): 111 % of control

Compound: CCN(CC)CCO/N=c1\nc(-c2ccccc2)c2cc(Cl)ccc2s1
- T/C [1]: 100 % of control
- T/C [2]: 103 % of control
- T/C [3]: 104 % of control

Compound: O=CN(Nc1ccccc1)C(=O)Nc1ccc(Cl)c(Cl)c1
- T/C (dose: 100.0 mg/kg/injection, schedule: Q04DX002 (ip), vehicle: Klucel (hydroxypropylcellulose) (HPC)): 96 % of control
- T/C (dose: 200.0 mg/kg/injection, schedule: Q04DX002 (ip), vehicle: Klucel (hydroxypropylcellulose) (HPC)): 97 % of control
- T/C (dose: 400.0 mg/kg/injection, schedule: Q04DX002 (ip), vehicle: Klucel (hydroxypropylcellulose) (HPC)): 104 % of control

Compound: O=[N+]([O-])c1cccc(C2OCC3(CO2)COC(c2cccc([N+](=O)[O-])c2)OC3)c1 (centres undefined)
- T/C [1]: 100 % of control
- T/C [2]: 100 % of control
- T/C [3]: 101 % of control

Compound: CCC(C)C(NC(=O)C(Cl)Cl)C(=O)O (centres undefined)
- T/C [4]: 96 % of control
- T/C [5]: 96 % of control
- T/C [6]: 99 % of control

Compound: O=C(CCCc1ccc(N(CCCl)CCCl)cc1)Nc1ncccn1
- T/C (dose: 5.3 mg/kg/injection, schedule: Q01DX009 (ip), vehicle: Klucel (hydroxypropylcellulose) (HPC)): 95 % of control
- T/C (dose: 8.0 mg/kg/injection, schedule: Q01DX009 (ip), vehicle: Klucel (hydroxypropylcellulose) (HPC)): 159 % of control
- T/C (dose: 12.0 mg/kg/injection, schedule: Q01DX009 (ip), vehicle: Klucel (hydroxypropylcellulose) (HPC)): 150 % of control
- T/C (dose: 18.0 mg/kg/injection, schedule: Q01DX009 (ip), vehicle: Klucel (hydroxypropylcellulose) (HPC)): 159 % of control

Compound: CC1=NNC(=O)C1(Br)Br
- T/C (dose: 3.13 mg/kg/injection, schedule: Q01DX009 (ip), vehicle: Klucel (hydroxypropylcellulose) (HPC)): 90 % of control
- T/C (dose: 6.25 mg/kg/injection, schedule: Q01DX009 (ip), vehicle: Klucel (hydroxypropylcellulose) (HPC)): 100 % of control
- T/C (dose: 12.5 mg/kg/injection, schedule: Q01DX009 (ip), vehicle: Klucel (hydroxypropylcellulose) (HPC)): 100 % of control

Compound: CCCCCCCCCCCCOC1C=C(C)C(=O)O1 (centres undefined)
- T/C (dose: 100.0 mg/kg/injection, schedule: Q04DX002 (ip), vehicle: saline with Tween-80): 100 % of control
- T/C (dose: 200.0 mg/kg/injection, schedule: Q04DX002 (ip), vehicle: saline with Tween-80): 101 % of control
- T/C (dose: 400.0 mg/kg/injection, schedule: Q04DX002 (ip), vehicle: saline with Tween-80): 100 % of control

Compound: O=C1c2ccccc2C(=O)c2c1cc1c(O)c(CN3CCCC3)ccc1c2O
- T/C [7]: 92 % of control
- T/C [8]: 89 % of control

Compound: C[C@]12CC[C@H](O)C[C@@]1(O)CC[C@@H]1[C@@H]2CC[C@]2(C)[C@@H](c3ccc(=O)oc3)C[C@H]3O[C@]132
- T/C (dose: 1.25 mg/kg/injection, schedule: Q01DX005 (ip), vehicle: saline + alcohol): 107 % of control
- T/C (dose: 2.5 mg/kg/injection, schedule: Q01DX005 (ip), vehicle: saline + alcohol): 104 % of control
- T/C (dose: 5.0 mg/kg/injection, schedule: Q01DX005 (ip), vehicle: saline + alcohol): 116 % of control
- T/C (dose: 10.0 mg/kg/injection, schedule: Q01DX005 (ip), vehicle: saline + alcohol): 94 % of control

Compound: O=C1CCC(=O)Nc2ccc3nc4ccccc4c(c3c2)SCCCCCCCCCCCCSc2c3ccccc3nc3ccc(cc23)N1
- T/C [7]: 110 % of control
- T/C [8]: 97 % of control
- T/C [9]: 107 % of control

Compound: Cc1ccc(C(C)(C)O)cc1O
- T/C (dose: 8.75 mg/kg/injection, schedule: Q01DX005 (ip), vehicle: Klucel + Tween-80): 100 % of control
- T/C (dose: 17.5 mg/kg/injection, schedule: Q01DX005 (ip), vehicle: Klucel + Tween-80): 100 % of control
- T/C (dose: 35.0 mg/kg/injection, schedule: Q01DX005 (ip), vehicle: Klucel + Tween-80): 103 % of control
- T/C (dose: 70.0 mg/kg/injection, schedule: Q01DX005 (ip), vehicle: Klucel + Tween-80): 103 % of control

Compound: CC(C)CCCCCCCCCCCCC(=O)NCC(=O)NC1C(C)OC(Nc2ncnc3nc[nH]c23)C(O)C1O (centres undefined)
- T/C (dose: 0.13 mg/kg/injection, schedule: Q01DX009 (ip), vehicle: other): 114 % of control
- T/C (dose: 0.25 mg/kg/injection, schedule: Q01DX009 (ip), vehicle: other): 121 % of control
- T/C (dose: 0.5 mg/kg/injection, schedule: Q01DX009 (ip), vehicle: other): 123 % of control
- T/C (dose: 1.0 mg/kg/injection, schedule: Q01DX009 (ip), vehicle: other): 157 % of control and 163 % of control
- T/C (dose: 1.0 mg/kg/injection, schedule: Q01DX009 (oral), vehicle: distilled water + Tween-80): 104 % of control
- T/C (dose: 2.0 mg/kg/injection, schedule: Q01DX009 (oral), vehicle: distilled water + Tween-80): 102 % of control
- T/C (dose: 4.0 mg/kg/injection, schedule: Q01DX009 (ip), vehicle: other): 97 % of control
- T/C (dose: 4.0 mg/kg/injection, schedule: Q01DX009 (oral), vehicle: distilled water + Tween-80): 105 % of control
- T/C (dose: 8.0 mg/kg/injection, schedule: Q01DX009 (oral), vehicle: distilled water + Tween-80): 103 % of control
- T/C (dose: 16.0 mg/kg/injection, schedule: Q01DX009 (oral), vehicle: distilled water + Tween-80): 104 % of control

Compound: CN(C)CCCNc1cccc2c1C(=O)c1cccc(NCCCN(C)C)c1C2=O
- T/C (dose: 4.0 mg/kg/injection, schedule: Q01DX009 (ip), vehicle: acid diluted with saline): 105 % of control
- T/C (dose: 7.5 mg/kg/injection, schedule: Q01DX009 (ip), vehicle: saline): 101 % of control
- T/C (dose: 8.0 mg/kg/injection, schedule: Q01DX009 (ip), vehicle: acid diluted with saline): 105 % of control
- T/C (dose: 12.5 mg/kg/injection, schedule: Q01DX005 (ip), vehicle: water): 108 % of control
- T/C (dose: 12.5 mg/kg/injection, schedule: Q01DX009 (ip), vehicle: water): 100 % of control
- T/C (dose: 15.0 mg/kg/injection, schedule: Q01DX009 (ip), vehicle: saline): 108 % of control
- T/C (dose: 16.0 mg/kg/injection, schedule: Q01DX009 (ip), vehicle: acid diluted with saline): 104 % of control
- T/C (dose: 25.0 mg/kg/injection, schedule: Q01DX005 (ip), vehicle: water): 114 % of control
- T/C (dose: 25.0 mg/kg/injection, schedule: Q01DX009 (ip), vehicle: water): 100 % of control
- T/C (dose: 30.0 mg/kg/injection, schedule: Q01DX009 (ip), vehicle: saline): 100 % of control
- T/C (dose: 32.0 mg/kg/injection, schedule: Q01DX009 (ip), vehicle: acid diluted with saline): 104 % of control
- T/C (dose: 50.0 mg/kg/injection, schedule: Q01DX005 (ip), vehicle: water): 102 % of control
- T/C (dose: 50.0 mg/kg/injection, schedule: Q01DX009 (ip), vehicle: water): 100 % of control
- T/C (dose: 60.0 mg/kg/injection, schedule: Q01DX009 (ip), vehicle: saline): 102 % of control
- T/C (dose: 64.0 mg/kg/injection, schedule: Q01DX009 (ip), vehicle: acid diluted with saline): 102 % of control

Compound: O=C(O)C(O)C(F)(F)C(F)(F)C(F)(F)F (centres undefined)
- T/C [7]: 97 % of control
- T/C [8]: 94 % of control
- T/C [9]: 88 % of control

Compound: CN1C(=O)N(c2cc(Cl)cc(Cl)c2)C(=N)C1=S
- T/C (dose: 60.0 mg/kg/injection, schedule: Q01DX005 (ip), vehicle: Klucel + Tween-80): 98 % of control
- T/C (dose: 120.0 mg/kg/injection, schedule: Q01DX005 (ip), vehicle: Klucel + Tween-80): 94 % of control

Compound: CC(NC(=O)C(Cc1ccccc1)NC(=O)c1ccc[n+](Cc2ccccc2)c1)C(N)=O (centres undefined)
- T/C (dose: 60.0 mg/kg/injection, schedule: Q01DX005 (ip), vehicle: saline): 97 % of control
- T/C (dose: 120.0 mg/kg/injection, schedule: Q01DX005 (ip), vehicle: saline): 93 % of control

Compound: C=CCNS(=O)(=O)c1ccccc1
- T/C (dose: 25.0 mg/kg/injection, schedule: Q04DX003 (ip), vehicle: saline with Tween-80): 102 % of control
- T/C (dose: 50.0 mg/kg/injection, schedule: Q04DX003 (ip), vehicle: saline with Tween-80): 107 % of control
- T/C (dose: 100.0 mg/kg/injection, schedule: Q04DX003 (ip), vehicle: saline with Tween-80): 94 % of control
- T/C (dose: 200.0 mg/kg/injection, schedule: Q04DX003 (ip), vehicle: saline with Tween-80): 107 % of control
- T/C (dose: 400.0 mg/kg/injection, schedule: Q04DX003 (ip), vehicle: saline with Tween-80): 107 % of control

Compound: O=C1NC(=O)C2(Br)Nc3ccc(Br)cc3C(=O)C2N1 (centres undefined)
- T/C [4]: 100 % of control
- T/C [5]: 98 % of control
- T/C [6]: 90 % of control
